Measured values published in patent EP0475392B1, “Herbicidal composition” (ISHIHARA SANGYO KAISHA, Ltd., priority 1990, dated 1992).
Structures can show the parent of a compound that is named as a salt.

Tested on: Digitaria sanguinalis
Assay: Test Example 1 (Foliage Treatment Test), herbicidal effect by visual observation
Assay type: in vivo
Conditions: foliar application at six-leaf stage, 27 days after treatment
Source text: Upland soil was placed in 1/10,000-are (are (a) = 100 m²) pots and sown with Digitaria sanguinalis. When the plants reached the six-leaf stage, a predetermined amount of each herbicidal composition which had been diluted with 10 ℓ, per are, of water and further admixed with 0.2 % (v/v) of a spreader (Shin Rino®: manufactured by Nihon Nohyaku Co., Ltd.) was foliarly applied on the plants using a small spray gun. 27 days after the foliage treatment application, the herbicidal effect of the herbicidal composition was examined through visual observation according to the following evaluation criteria.

Compound | Rating (0.25 g/a active ingredient) | Rating (0.5 g/a active ingredient) | Rating (1 g/a active ingredient) | Rating (2.5 g/a active ingredient) | Rating (5 g/a active ingredient)
COc1cc(OC)nc(NC(=O)NS(=O)(=O)c2ncccc2C(F)(F)F)n1 [Compound A, 1-(4,6-dimethoxy-pyrimidin-2-yl)-3-(3-trifluoromethyl-2-pyridylsulfonyl)urea] | 2 (20 to 29) | 3 (30 to 39) | 3 (30 to 39) |  | 
O=C(O)CNCP(=O)(O)O [Isopropylamine salt of Compound B, isopropylamine salt of N-(phosphonomethyl)glycine, reference compound] |  |  |  | 4 (40 to 49) | 6 (60 to 69)
